Test results published in patent publication US9029325B2, “Amylin analogues and pharmaceutical compositions thereof” (Novo Nordisk A/S, priority 2011, dated 2015).
Starred links: 1 amine or outer side, 2 acyl side, 3 side chain; linkers in the order of their positions; H or OH if unused. Positions of bridges follow the written chain, without caps; N, C: chain ends. Residues, ends and D or L forms follow the SMILES beside them. *: point of attachment. C20 diacid = O=C(O)CCCCCCCCCCCCCCCCCCC(=O)*; γGlu = O=C(O)[C@H](CCC(=O)[*:2])N[*:1]

Experiment: Assay (III) ThT fibrillation assay for physical stability
Format: physicochemical
Details: for Th T pH 4.0 lag time (h): 37° C., orbital shaking 960 rpm; for ThT pH 4.0 lag time: Table 9
Description: Low physical stability of a polypeptide may lead to amyloid fibril formation, which is observed as well-ordered, thread-like macromolecular structures in the sample eventually resulting in gel formation. This has traditionally been measured by visual inspection of the sample. However, that kind of measurement is very subjective and depending on the observer. Therefore, the application of a small molecule indicator probe is much more advantageous. Thioflavin T (ThT) is such a probe and has a distinct fluorescence signature when binding to fibrils [Naiki et al. (1989) Anal. Biochem. 177, 244-249; LeVine (1999) Methods. Enzymol. […], 274-284].
The time course for fibril formation can be described by a sigmoidal curve with the following expression [Nielsen et al. (2001) Biochemistry 40, 6036-6046]:
[formula] Here, F is the ThT fluorescence at the time t. The constant t0 is the time needed to reach 50% of maximum fluorescence. The two important parameters describing fibril formation are the lag-time calculated by t0−2T and the apparent rate constant kapp=1/τ.
Few of those intermediates nucleate to form a template onto which further intermediates may assembly and the fibrillation proceeds. The lag-time corresponds to the interval in which the critical mass of nucleus is built up and the apparent rate constant is the rate with which the fibril itself is formed.
Samples were prepared freshly before each assay. Each sample composition is described in each example. The pH of the sample was adjusted to the desired value using appropriate amounts of concentrated NaOH and HClO4 or HCl. Thioflavin T was added to the samples from a stock solution in H2O to a final concentration of 1 μM.
Sample aliquots of 200 μl were placed in a 96 well microtiter plate (Packard OptiPlate™-96, white polystyrene). Usually, four or eight replica of each sample (corresponding to one test condition) were placed in one column of wells. The plate was sealed with Scotch Pad (Qiagen).
Incubation at given temperature, shaking and measurement of the ThT fluorescence emission were done in a Fluoroskan Ascent FL fluorescence platereader or Varioskan platereader (Thermo Labsystems). The temperature was adjusted to 37° C. The orbital shaking was adjusted to 960 rpm with an amplitude of 1 mm in all the presented data. Fluorescence measurement was done using excitation through a 444 nm filter and measurement of emission through a 485 nm filter.
Each run was initiated by incubating the plate at the assay temperature for 10 min. The plate was measured every 20 minutes for a desired period of time. Between each measurement, the plate was shaken and heated as described.
The measurement points were saved in Microsoft Excel format for further processing and curve drawing and fitting was performed using GraphPad Prism. The background emission from ThT in the absence of fibrils was negligible. The data points are typically a mean of four or eight samples and shown with standard deviation error bars. Only data obtained in the same experiment (i.e. samples on the same plate) are presented in the same graph ensuring a relative measure of fibrillation […].
The data set may be fitted to Eq. (1). However, since full sigmodial curves in this case are not always achieved during the measurement time, the degree of fibrillation is expressed as ThT fluorescence tabulated as the mean of the samples and shown with the standard deviation at various time points.
The polypeptide concentration in each of the tested formulations were measured both before application in the ThT fibrillation assay (“Initial”) and after completion of the ThT fibrillation (“After ThT assay”). Concentrations were determined by reverse HPLC methods using a pramlintide standard as a reference. Before measurement after completion 150 μl was collected from each of the replica and transferred to an Eppendorf tube. These were centrifuged at 30000 G for 40 mins. […]

CC[C@H](C)[C@H](NC(=O)[C@@H]1CCCN1C(=O)CNC(=O)[C@H](Cc1ccccc1)NC(=O)[C@H](CC(N)=O)NC(=O)[C@H](CC(N)=O)NC(=O)[C@H](CO)NC(=O)[C@H](CO)NC(=O)[C@H](Cc1c[nH]cn1)NC(=O)[C@H](CCCNC(=N)N)NC(=O)[C@H](CC(C)C)NC(=O)[C@H](Cc1ccccc1)NC(=O)[C@H](CCC(=O)O)NC(=O)[C@H](C)NC(=O)[C@H](CC(C)C)NC(=O)[C@H](CCCNC(=N)N)NC(=O)[C@H](CCC(N)=O)NC(=O)[C@@H](NC(=O)[C@H](C)NC(=O)[C@@H]1CSSC[C@H](NC(=O)CNC(=O)CC[C@H](NC(=O)CCCCCCCCCCCCCCCCCCC(=O)O)C(=O)O)C(=O)N[C@@H](CC(N)=O)C(=O)N[C@@H]([C@@H](C)O)C(=O)N[C@@H](C)C(=O)N[C@@H]([C@@H](C)O)C(=O)N1)[C@@H](C)O)C(=O)N[C@@H](CC(C)C)C(=O)N1CCC[C@H]1C(=O)N1CCC[C@H]1C(=O)N[C@H](C(=O)N[C@@H](CC(N)=O)C(=O)N[C@H](C(=O)NCC(=O)N[C@@H](CO)C(=O)N[C@@H](CC(N)=O)C(=O)N[C@H](C(=O)N1CCC[C@H]1C(N)=O)[C@@H](C)O)C(C)C)[C@@H](C)O [Example 88, N-alpha-[(S)-4-Carboxy-4-(19-carboxynonadecanoylamino)butyryl]-[Gly1, Glu14, Arg17, Pro37]-pramlintide] ({C20 diacid-γGlu}-GCNTATCATQRLAEFLRHSSNNFGPILPPTNVGSNTP-NH2; disulfide 2-7 (inferred); C-terminus assumed)
Th T pH 4.0 lag time (h): >45 h | ThT pH 4.0 lag time: >45 hr

CC[C@H](C)[C@H](NC(=O)[C@@H]1CCCN1C(=O)CNC(=O)[C@H](Cc1ccccc1)NC(=O)[C@H](CC(N)=O)NC(=O)[C@H](CC(N)=O)NC(=O)[C@H](CO)NC(=O)[C@H](CO)NC(=O)[C@H](Cc1c[nH]cn1)NC(=O)[C@H](CCCNC(=N)N)NC(=O)[C@H](CC(C)C)NC(=O)[C@H](Cc1ccccc1)NC(=O)[C@H](CCC(=O)O)NC(=O)[C@H](C)NC(=O)[C@H](CC(C)C)NC(=O)[C@H](CCCNC(=N)N)NC(=O)[C@H](CCC(N)=O)NC(=O)[C@@H](NC(=O)[C@H](C)NC(=O)[C@@H]1CSSC[C@H](NC(=O)[C@H](Cc2c[nH]cn2)NC(=O)CC[C@H](NC(=O)CCCCCCCCCCCCCCCCCCC(=O)O)C(=O)O)C(=O)N[C@@H](CC(N)=O)C(=O)N[C@@H]([C@@H](C)O)C(=O)N[C@@H](C)C(=O)N[C@@H]([C@@H](C)O)C(=O)N1)[C@@H](C)O)C(=O)N[C@@H](CC(C)C)C(=O)N1CCC[C@H]1C(=O)N1CCC[C@H]1C(=O)N[C@H](C(=O)N[C@@H](CC(N)=O)C(=O)N[C@H](C(=O)NCC(=O)N[C@@H](CO)C(=O)N[C@@H](CC(N)=O)C(=O)N[C@H](C(=O)N1CCC[C@H]1C(N)=O)[C@@H](C)O)C(C)C)[C@@H](C)O [Example 90, N-alpha-[(S)-4-Carboxy-4-(19-carboxynonadecanoylamino)butyryl]-[His1, Glu14, Arg17, Pro37]-pramlintide] ({C20 diacid-γGlu}-HCNTATCATQRLAEFLRHSSNNFGPILPPTNVGSNTP-NH2; disulfide 2-7 (inferred); C-terminus assumed)
Th T pH 4.0 lag time (h): >45 h | ThT pH 4.0 lag time: >45 hr

CC[C@H](C)[C@H](NC(=O)[C@@H]1CCCN1C(=O)CNC(=O)[C@H](Cc1ccccc1)NC(=O)[C@H](CC(N)=O)NC(=O)[C@H](CC(N)=O)NC(=O)[C@H](CO)NC(=O)[C@H](CO)NC(=O)[C@H](Cc1c[nH]cn1)NC(=O)[C@H](Cc1c[nH]cn1)NC(=O)[C@H](CC(C)C)NC(=O)[C@H](Cc1ccccc1)NC(=O)[C@H](CCC(=O)O)NC(=O)[C@H](C)NC(=O)[C@H](CC(C)C)NC(=O)[C@H](CCCNC(=N)N)NC(=O)[C@H](CCC(N)=O)NC(=O)[C@@H](NC(=O)[C@H](C)NC(=O)[C@@H]1CSSC[C@H](NC(=O)CNC(=O)CC[C@H](NC(=O)CCCCCCCCCCCCCCCCCCC(=O)O)C(=O)O)C(=O)N[C@@H](CC(N)=O)C(=O)N[C@@H]([C@@H](C)O)C(=O)N[C@@H](C)C(=O)N[C@@H]([C@@H](C)O)C(=O)N1)[C@@H](C)O)C(=O)N[C@@H](CC(C)C)C(=O)N1CCC[C@H]1C(=O)N1CCC[C@H]1C(=O)N[C@H](C(=O)N[C@@H](CC(N)=O)C(=O)N[C@H](C(=O)NCC(=O)N[C@@H](CO)C(=O)N[C@@H](CC(N)=O)C(=O)N[C@H](C(=O)N1CCC[C@H]1C(N)=O)[C@@H](C)O)C(C)C)[C@@H](C)O [Example 91, N-alpha-[(S)-4-Carboxy-4-(19-carboxynonadecanoylamino)butyryl]-[Gly1, Glu14, His17, Pro37]-pramlintide] ({C20 diacid-γGlu}-GCNTATCATQRLAEFLHHSSNNFGPILPPTNVGSNTP-NH2; disulfide 2-7)
Th T pH 4.0 lag time (h): 29 h

CC[C@H](C)[C@H](NC(=O)[C@@H]1CCCN1C(=O)CNC(=O)[C@H](Cc1ccccc1)NC(=O)[C@H](CC(N)=O)NC(=O)[C@H](CC(N)=O)NC(=O)[C@H](CO)NC(=O)[C@H](CO)NC(=O)[C@H](Cc1c[nH]cn1)NC(=O)[C@H](CCCNC(=N)N)NC(=O)[C@H](CC(C)C)NC(=O)[C@H](Cc1ccccc1)NC(=O)[C@H](CCC(=O)O)NC(=O)[C@H](C)NC(=O)[C@H](CC(C)C)NC(=O)[C@H](CCCNC(=N)N)NC(=O)[C@H](CCC(N)=O)NC(=O)[C@@H](NC(=O)[C@H](C)NC(=O)[C@@H]1CSSC[C@H](NC(=O)[C@H](CCC(=O)O)NC(=O)[C@H](CCCNC(=N)N)NC(=O)[C@H](CCC(=O)O)NC(=O)CC[C@H](NC(=O)CCCCCCCCCCCCCCCCCCC(=O)O)C(=O)O)C(=O)N[C@@H](CC(N)=O)C(=O)N[C@@H]([C@@H](C)O)C(=O)N[C@@H](C)C(=O)N[C@@H]([C@@H](C)O)C(=O)N1)[C@@H](C)O)C(=O)N[C@@H](CC(C)C)C(=O)N1CCC[C@H]1C(=O)N1CCC[C@H]1C(=O)N[C@H](C(=O)N[C@@H](CC(N)=O)C(=O)N[C@H](C(=O)NCC(=O)N[C@@H](CO)C(=O)N[C@@H](CC(N)=O)C(=O)N[C@H](C(=O)N1CCC[C@H]1C(N)=O)[C@@H](C)O)C(C)C)[C@@H](C)O [Example 124, N-alpha-[(S)-4-Carboxy-4-(19-carboxynonadecanoylamino)butyryl]-Glu-Arg-[Glu1, Glu14, Arg17, Pro37]-pramlintide] ({C20 diacid-γGlu}-ERECNTATCATQRLAEFLRHSSNNFGPILPPTNVGSNTP-NH2; disulfide 4-9)
Th T pH 4.0 lag time (h): >45 h | ThT pH 4.0 lag time: >45 hr

CC[C@H](C)[C@H](NC(=O)[C@@H]1CCCN1C(=O)CNC(=O)[C@H](Cc1ccccc1)NC(=O)[C@H](CC(N)=O)NC(=O)[C@H](CCC(N)=O)NC(=O)[C@H](CO)NC(=O)[C@H](CO)NC(=O)[C@H](Cc1c[nH]cn1)NC(=O)[C@H](Cc1c[nH]cn1)NC(=O)[C@H](CC(C)C)NC(=O)[C@H](Cc1ccccc1)NC(=O)[C@H](CCC(=O)O)NC(=O)[C@H](C)NC(=O)[C@H](CC(C)C)NC(=O)[C@H](CCCNC(=N)N)NC(=O)[C@H](CCC(N)=O)NC(=O)[C@@H](NC(=O)[C@H](C)NC(=O)[C@@H]1CSSC[C@H](NC(=O)[C@H](CCCCN)NC(=O)CC[C@H](NC(=O)CCCCCCCCCCCCCCCCCCC(=O)O)C(=O)O)C(=O)N[C@@H](CC(N)=O)C(=O)N[C@@H]([C@@H](C)O)C(=O)N[C@@H](C)C(=O)N[C@@H]([C@@H](C)O)C(=O)N1)[C@@H](C)O)C(=O)N[C@@H](CC(C)C)C(=O)N1CCC[C@H]1C(=O)N1CCC[C@H]1C(=O)N[C@H](C(=O)N[C@@H](CC(N)=O)C(=O)N[C@H](C(=O)NCC(=O)N[C@@H](CO)C(=O)N[C@@H](CC(N)=O)C(=O)N[C@H](C(=O)N1CCC[C@H]1C(N)=O)[C@@H](C)O)C(C)C)[C@@H](C)O [Example 130, N-alpha-[(S)-4-Carboxy-4-(19-carboxynonadecanoylamino)butyryl]-[Glu14, His17, Gln21, Pro37]-pramlintide] ({C20 diacid-γGlu}-KCNTATCATQRLAEFLHHSSQNFGPILPPTNVGSNTP-NH2; disulfide 2-7 (inferred); C-terminus assumed)
Th T pH 4.0 lag time (h): >45 h | ThT pH 4.0 lag time: >45 hr
